Measurements: patent publication US12295938B2, “Composition for treating castration-resistant prostate cancer, comprising quassinoids” (SAMSUNG LIFE PUBLIC WELFARE FOUNDATION, priority 2019, dated 2025)
Where two headings read alike, the source gives them in different places.

Assays:
[1] = test system: hormone-dependent AR transcriptional activity; test: MMTV-LUC reporter assay in LNCaP cells, hormone-dependent AR transcriptional activity; type: cell-based; details: Homo sapiens, read-out: IC50 (nM) DHT+
[2] = mouse, in vivo
Description: Anatomical and histological toxicity assays were performed on livers, kidneys and spleens from the mice subcutaneously injected with bruceantin. In order to analyze in vivo toxicity of bruceantin, liver, kidney, and spleen tissues from 22RV1 xenograft mouse models were analyzed after subcutaneous injection at a dose of 1 mg/kg/every 3 days, and the results are depicted in FIGS. 11a and 11b.
Anatomical and histological toxicity assays were performed on livers, kidneys and spleens from the mice to which bruceantin had been orally administered. In order to analyze in vivo toxicity of bruceantin, liver, kidney, and spleen tissues from 22RV1 xenograft mouse models were analyzed after oral administration at a dose of 2 mg/kg/every 2 days, and the results are depicted in FIGS. 12a and 12d.

[3] = Hematobiochemical toxicity assay in 22RV1 xenograft mice; type: in vivo, mouse; details: for ALT (ave) / AST (ave) / AST/ALT (ave) / CK (ave) / Cr (ave) / LDH (ave): mouse, in vivo
Description: Briefly, in order to analyze toxicity of bruceantin in vivo, bloods from 22RV1 xenograft […] 3 days […] and oral administration at a dose of 2 mg/kg/every 2 days (p.o.), and the results are depicted in FIG. 10 and summarized in Table 13. • ALT: Alanine transaminase • AST: Aspartate transaminase • LDH: Lactate dehydrogenase • CR: Creatinine • CPK: Creatine phosphokinase

[4] = test system: AR transcriptional activity; test: MMTV-LUC luciferase reporter assay in 22RV1 cells, DHT+ (screening and IC50); type: cell-based; details: for activity at 0.1 µM / activity at 1 µM / activity at 10 µM / IC50: Homo sapiens; for activity at 0.1 µM / activity at 1 µM / activity at 10 µM / MMTV-LUC activity (%) DHT+: with DHT, control = 100; for IC50: AR transcriptional activity
Description: (§2) A library of antimalarial agents was screened using a luciferase reporter assay to measure changes in AR/AR-V7 transcriptional activity.
(§3) Screening was made primarily with 10 μM of each drug.

[5] = test system: 22RV1 xenograft mouse models; type: in vivo; design: Tumor (ave): unit not given here; details: 2 mg/kg every 2 days oral
Description: In mouse models xenografted with the castration-resistant prostate cancer (CRPC) cell line 22RV1, bruceantin was analyzed for inhibitory effect on tumor growth. To this end, bruceantin was orally administered at a dose of 2 mg/kg/every 2 days to 22RV1 xenograft mouse models during which inhibition effects on tumor growth and body weights were monitored. The results are depicted in FIGS. 9a and 9b and Tables 11 and 12.

[6] = test system: 22RV1-xenografted mouse models; type: in vivo; design: Tumor (ave): unit not given here; details: for Tumor (ave): 1 mg/kg every 3 days subcutaneous
Description: (§1) While being subcutaneously injected with bruceantin at a dose of 1 mg/kg/every 3 days, 22RV1-xenografted mouse models were monitored for inhibitory effects on tumor growth and body weights.

[7] = test system: AR-V7 transcriptional activity; test: MMTV-LUC luciferase reporter assay in 22RV1 cells, DHT− (screening and IC50); type: cell-based; details: for activity at 0.1 µM / activity at 1 µM / activity at 10 µM / IC50: Homo sapiens; for activity at 0.1 µM / activity at 1 µM / activity at 10 µM / IC50 / MMTV-LUC activity (%) DHT−: 22RV1 cells; for activity at 0.1 µM / activity at 1 µM / activity at 10 µM / MMTV-LUC activity (%) DHT−: no DHT, control = 100; for IC50: AR-V7 transcriptional activity; for potency as inhibitor of AR/AR-V7 transcriptional activity compared with ailanthone: in both CRPC 22RV1 cells and androgen-dependent LNCaP cells
Description: as §2, §3

[8] = mouse, in vivo; for AST/ALT (ave): sc
Description: FIG. 8b is a graph showing changes in blood AST/ALT ratio with doses of bruceantin subcutaneously injected to mice according to an embodiment of the present disclosure.
as §1

[9] = test system: RWPE-1, DU145, PC3, LNCaP, C4-2B, C4-2B-MDVR and 22RV1 cells; test: MTT cell growth assay on normal prostate and prostate cancer cell lines; type: cell-based; details: 1 nM to 5 nM, 72 hours; versus normal prostate cells and AR-negative prostate cancer cells
Description: Bruceantin was analyzed for inhibitory activity against cell growth of normal prostate cells (RWPE-1), AR-negative prostate cancer cells (DU145, PC3), AR-positive hormone-dependent prostate cancer cells (LNCaP, C4-2B), AR- & AR-V7-positive castration-resistant prostate cancer cells (C4-2B-MDVR and 22RV1) by an MTT assay method.
In brief, the cell lines were each seeded at a density of 1×10^4 cells/well into 96-well plates and incubated with each of the drugs at three concentrations ranging from 1 nM to 5 nM for 72 hours. Afterwards, an MTT dye solution and a solubilization solution/stop mix were added according to an MTT assay method, followed by reading absorbance at 570 nm to analyze cell viability. The data are depicted in FIG. 6.

[10] = test system: 22RV1 metastasis mouse models; type: in vivo; details: 2 mg/kg every 2 days oral
Description: In order construct metastasis mouse models with the castration-resistant prostate cancer cell line 22RV1, the cells were subcutaneously injected into nude mice and the tumors was grown. Then, the tumors were harvested and injected into the left cardiac ventricle of nude mice to construct metastasis mouse models (see FIG. 13).
In the metastasis mouse models using the castration-resistant prostate cancer cell line 22RV1, bruceantin was analyzed for inhibitory effect on tumor metastasis and growth. In brief, the metastasis mice were monitored for inhibitory effects on tumor metastasis and growth and body weight while bruceantin was orally administered at a dose of 2 mg/kg/every 2 days thereto. The results are depicted in FIGS. 14a and 14b and Table 14.

22RV1 cells = test: MTT cell growth inhibition assay, 22RV1; type: cell-based; details: for IC50: Homo sapiens, read-out: IC50 (22RV1 cell growth)
Description: In brief, 22RV1 cells were seeded at a density of 1×10^4 cells/well into 96-well plates and treated with each drug at 6 concentrations ranging from 5 nM to 200 nM for 72 hours. Afterwards, an MTT dye solution and a solubilization solution/stop mix were added according to an MTT assay method, followed by reading absorbance at 570 nm to analyze cell viability and IC50.

Molecule: COC(=O)[C@@]12OC[C@]34[C@H]([C@@H](O)[C@@H]1O)[C@@]1(C)CC(=O)C(O)=C(C)[C@@H]1C[C@H]3OC(=O)[C@H](OC(=O)/C=C(\C)C(C)C)[C@@H]24 [Bruceantin, bruceantin]
- IC50 ([1]; LNCaP): 2.05 nM
- morphological and histological changes in liver, kidney, spleen ([2]; po, 2 mg/kg): no morphological and histological changes (toxicity)
- morphological and histological changes in liver, kidney, spleen ([2]; sc, 1 mg/kg): no morphological and histological changes (toxicity)
- toxicity on blood indices ([3]; compared to the control vehicle, both routes): no toxicity on blood indices
- ALT (ave) ([3]; ip, 1 mg/kg): 61.2
- AST (ave) ([3]; ip, 1 mg/kg): 351
- AST/ALT (ave) ([3]; ip, 1 mg/kg): 6.409
- CK (ave) ([3]; ip, 1 mg/kg): 180
- Cr (ave) ([3]; ip, 1 mg/kg): 0.156
- LDH (ave) ([3]; ip, 1 mg/kg): 1098.6
- ALT (ave) ([3]; po, 2 mg/kg): 72
- AST (ave) ([3]; po, 2 mg/kg): 263.4
- AST/ALT (ave) ([3]; po, 2 mg/kg): 3.658
- CK (ave) ([3]; po, 2 mg/kg): 247.5
- Cr (ave) ([3]; po, 2 mg/kg): 0.138
- LDH (ave) ([3]; po, 2 mg/kg): 1456.8
- activity at 0.1 µM ([4]; 0.1 uM): 4 ± 0.5%
- activity at 1 µM ([4]; 1 uM): 4.4 ± 0.3%
- activity at 10 µM ([4]; 10 uM): 3.9 ± 0.4%
- IC50 [4]: 2.08 nM
- inhibition of tumor growth [5]: effectively inhibit tumor growth
- Tumor (ave) ([5]; Day 0): 73.0453
- Tumor (ave) ([5]; Day 3): 89.5358
- Tumor (ave) ([5]; Day 5): 75.35
- Tumor (ave) ([5]; Day 7): 88.811
- Tumor (ave) ([5]; Day 9): 157.6571
- Tumor (ave) ([5]; Day 11): 189.9515
- Tumor (ave) ([5]; Day 13): 256.5573
- Tumor (ave) ([5]; Day 15): 348.6721
- Tumor (ave) ([5]; Day 17): 485.1394
- Tumor (ave) ([5]; Day 19): 567.0807
- Tumor (ave) ([5]; Day 21): 616.549
- Tumor (ave) ([6]; Day 0): 57.5
- Tumor (ave) ([6]; Day 3): 81.7
- Tumor (ave) ([6]; Day 6): 161.6
- Tumor (ave) ([6]; Day 9): 250.2
- Tumor (ave) ([6]; Day 12): 428.0
- Tumor (ave) ([6]; Day 15): 676.3
- Tumor (ave) ([6]; Day 18): 895.7
- Tumor (ave) ([6]; Day 21): 938.5
- Tumor (ave) ([6]; Day 24): 1005.7
- inhibition of in vivo tumor growth of CRPC cells ([6]; nude mice, 22RV1 cells, dose of 1 mg/kg): effectively inhibit in vivo tumor growth
- activity at 0.1 µM ([7]; 0.1 uM): 13.4 ± 2.5%
- activity at 1 µM ([7]; 1 uM): 15.2 ± 1.6%
- activity at 10 µM ([7]; 10 uM): 16.4 ± 2.3%
- IC50 [7]: 3.14 nM
- potency as inhibitor of AR/AR-V7 transcriptional activity compared with ailanthone [7]: more potent inhibitors against AR/AR-V7 transcriptional activity
- effect on weights of the mice ([8]; 1 mg/kg): no effect on weights of the mice
- hepatotoxicity ([8]; 1 mg/kg): nor to cause hepatotoxicity
- AST/ALT (ave) ([8]; 0.5 mg/kg): 2.5
- AST/ALT (ave) ([8]; 1 mg/kg): 3.3
- specificity of cell growth inhibition [9]: inhibitory activity specifically against AR- and AR-V7-positive prostate cancer cells
- inhibitory effect on tumor metastasis and growth [10]: inhibit metastatic tumor growth and the number of metastases
- fold more potent inhibitory activity against CRPC cell growth than ailanthone (22RV1 cells; 22RV1 cells, versus ailanthone): 16 fold
- IC50 (22RV1 cells; 22RV1 cells, MTT, 72 hours): 0.00207 µM

Molecule: COC(=O)[C@@]12OC[C@]34[C@H]([C@@H](O)[C@@H]1O)[C@@]1(C)CC(=O)C(O)=C(C)[C@@H]1C[C@H]3OC(=O)[C@H](OC(=O)CC(C)C)[C@@H]24 [Bruceine A, bruceine A]
- IC50 ([1]; LNCaP): 15 nM
- activity at 0.1 µM ([4]; 0.1 uM): 5.7 ± 1%
- activity at 1 µM ([4]; 1 uM): 3.6 ± 0.2%
- activity at 10 µM ([4]; 10 uM): 2.8 ± 0.2%
- IC50 [4]: 9.45 nM
- activity at 0.1 µM ([7]; 0.1 uM): 19.5 ± 20.7%
- activity at 1 µM ([7]; 1 uM): 13.5 ± 1.7%
- activity at 10 µM ([7]; 10 uM): 11 ± 2.5%
- IC50 [7]: 14.3 nM
- potency as inhibitor of AR/AR-V7 transcriptional activity compared with ailanthone [7]: more potent inhibitors against AR/AR-V7 transcriptional activity
- IC50 (22RV1 cells; 22Rv1, 72 h): 0.0165 µM

Molecule: COC(=O)[C@@]12OC[C@]34[C@H]([C@@H](O)[C@@H]1O)[C@@]1(C)CC(=O)C(O)=C(C)[C@@H]1C[C@H]3OC(=O)[C@H](OC(=O)C=C(C)C)[C@@H]24 [Brusatol, brusatol]
- IC50 ([1]; LNCaP cells): 11.7 nM
- activity at 0.1 µM ([4]; 0.1 uM): 5.7 ± 0.6%
- activity at 1 µM ([4]; 1 uM): 4 ± 0.5%
- activity at 10 µM ([4]; 10 uM): 3.2 ± 0.2%
- IC50 [4]: 6.23 nM
- activity at 0.1 µM ([7]; 0.1 uM): 18.9 ± 20.2%
- activity at 1 µM ([7]; 1 uM): 14 ± 1.3%
- activity at 10 µM ([7]; 10 uM): 10.3 ± 2.7%
- IC50 [7]: 14 nM
- potency as inhibitor of AR/AR-V7 transcriptional activity compared with ailanthone [7]: more potent inhibitors against AR/AR-V7 transcriptional activity
- IC50 (22RV1 cells; 22RV1 cells, MTT, 72 hours): 0.0151 µM

Molecule: Yadanziolide C
- MMTV-LUC activity (%) DHT+ ([4]; 0.1 uM): 92.5 ± 0.9%
- MMTV-LUC activity (%) DHT+ ([4]; 1 uM): 12.1 ± 2.0%
- MMTV-LUC activity (%) DHT+ ([4]; 10 uM): 1.1 ± 0.1%
- MMTV-LUC activity (%) DHT− ([7]; 0.1 uM): 80.5 ± 2.9%
- MMTV-LUC activity (%) DHT− ([7]; 1 uM): 17.4 ± 3.1%
- MMTV-LUC activity (%) DHT− ([7]; 10 uM): 6.0 ± 0.7%
